# Assay results from patent US8796241B2, “Therapy of tumors and infectious agents deficient in methylthioadenosine phosphorylase” (priority 2007, dated 2014).
# Experiments:
# MTAP(−) A549 cells = assay: Clonogenic assay of A549 cells; format: cell-based, human; settings: for potentiation of killing of A549 cells by DAP: Example 9
# Experimental: (§1) Cell viability of adherent cell types was measured by clonogenic assay as follows: after releasing cells with trypsin and removing a portion of the cell suspension for Coulter counting, the remainder of the cell suspension was plated in serial dilutions in growth medium, without drugs. After a period sufficient for clones to reach a size visible by eye (usually 2 to 3 weeks), clones were stained with crystal violet in a saline/methanol solution. Dishes that had fewer than 100 clones were deemed suitable for counting. From these counts and from the dilution factors, the approximate number of viable cells, in the parent treatment dishes, was calculated. […] In clonogenic assays, clone size was often variable, especially after treatment with toxic drugs. Moreover, many of the very small clones may have arisen from cells detached during the weeks of incubation. […] Cloning efficiency for healthy, growing A549 cells was about 50%; for HF cells, efficiency was quite variable, ranging from 25 to 75% (perhaps because the HF cell stock varied, from experiment to experiment, in passage number).
# A549 cells were incubated for 4 days with additions shown below, and viable cells measured by clonogenic assay. (Results shown are approximate; see Methods) Cell count in dish at start: 40,000
# • MTAP(−) A549 lung tumor cell cultures were treated with F-Ade, with or without MTA, 5′-dAdo, or adenine (Ade), for three days. Coulter counts of cells, and viable cells as determined by clonogenic assay, are shown below: • Initial cell number: 10,340*
# • A549 cell cultures were treated with DAP, with or without 5′-dAdo or adenine, for three days. After trypsinization, one-fourth of the cell suspension was counted, and raw data is shown below, with duplicate counts for each sample. The cell suspension was also serially diluted for clonogenic assay. • Counts at start of experiment: Dish one: 36,480; 39,160; Dish two: 52,680; 51,360. • Initial viable cells by clonogenic assay: 180,000.
# • Cell cultures were treated with MTX or alanosine for one day. DAP was then added and 3 days later, cells were trypsinized and serially diluted for clonogenic assay. Results are shown below: • Initial viable cells: 146,000
# • A549 cells were plated, and after they had adhered to the substrate, medium was changed to methionine-free medium with 10% dialyzed serum. L-ethionine (Eth) and MTA were added, and after 4 days, cell cultures were trypsinized and serially diluted for clonogenic assay. • Initial number of viable cells: 160,000*
# • A549 cultures were treated with 6-thioguanine (TG) or 2,6,diaminopurine (DAP), or both, for 3 days. • Initial viable cells: 275,000 • After 3 days: […]
# MTAP(+) HF cells [1] = assay: Clonogenic assay of HF cells; format: cell-based, human
# Experimental: as §1
# • B. F-Ade was added to cultures of MTAP(+) HF cells, with or without 5′-dAdo, for 3 days. Cultures were then trypsinized and serially diluted for clonogenic assay. • Initial number of viable cells per dish: 45,000 • Viable cells after 3 days shown below:
# • HF cells were plated, and after they had adhered to the substrate, medium was changed to methionine-free medium, with 10% dialyzed serum. • Initial Coulter count: 73,000*; viable cells: 88,000 • After 3 days in methionine-free medium, with or without L-ethionine (Eth) or MTA: […]
# MTAP(+) HF cells [2] = assay: Coulter counts of HF cell cultures; format: cell-based, human; settings: for Coulter counts: x56 = cells/dish
# Experimental: For adherent cell types (e.g., HF, A549, MCF7) cells were plated in 60 mm -diameter plastic tissue culture dishes and incubated at 37° C. in a humidified 5% CO2 atmosphere, in Dulbecco's Modified Eagle's Medium (DME) with 10% fetal bovine serum (FBS). At the start of an experiment, medium was replaced with DME and 10% dialyzed FBS.
# (§2) For adherent cell types, cell numbers were determined periodically by releasing cells with trypsin (dead cells that were no longer adherent were removed by two prior rinses of the culture dish) and placing a portion of the resulting cell suspension in a Coulter counter. For cell types that grow in suspension, portions of the culture were counted directly, without trypsin treatment. Coulter counts of cells from each dish were done twice, and almost all experiments were done in duplicate. In the presentation of results, raw data for Coulter counts is given in some cases, while in others, counts have been rounded off to two to three significant figures. (Background Coulter counts—i.e., counts of diluent alone—were insignificant.)
# Cell cultures were treated with MeP, with or without 5′-dAdo or MTA, for 4 days. The cell cultures were then changed to fresh medium, with the addition of 30 μM Ade to inhibit further action of the analog. Two days later cultures were trypsinized and a portion of the suspension was counted.
# • A. F-Ade was added to cultures of HF cells, with varying amounts of 5′-dAdo. After 3 days, cell numbers were counted. • Initial cell count: 1,100 • After three days:
# • Cultures of human fibroblasts were treated with DAP, 5′-dAdo, MTA, adenine, or MTX. Thymidine (15 μM) was added to all cultures. • Initial count was: 1807 • Counts, as raw data, after 3 days of incubation, are shown below: […]
# • Human fibroblasts in culture were treated with 6-thioguanine (TG), 2,6-diaminopurine (DAP), or 5′-dAdo for 3 days. After trypsinization, cell numbers were counted. • Initial cell number: 296,000
# [3] = tested on: MTAP-positive cells and cells lines; assay: Applicants' tissue culture experiments on protection of MTAP-positive cells (summary statements); format: cell-based, human; mouse
# MTAP(+) ML-1 cells = assay: Coulter counts of ML-1 suspension cultures; format: cell-based; settings: for Increase in cell number/ml, No 5′-dAdo: 2 days, FU 3 μM, TG 20 μM, DAP 50 μM where present, initial Coulter count/ml 308,000; for inhibition of growth of MTAP(+) ML-1 cells: Example 14
# Experimental: (§3) For cell types that grow in suspension (e.g., ML-1, HL-60, K-562) medium was RPMI-1640 with 10% FBS (undialyzed).
# as §2
# (§4) For cells that grow in suspension, the effect of treatments was assessed solely by changes in Coulter count.
# • ML-1 cells were incubated in RPMI 1640 with 10% FBS with 5′-dAdo (60 μM) for 6 hours. 5-fluorouracil (FU), 6-thioguanine (TG), or 2,6-diaminopurine (DAP) were then added, and after 2 additional days, 0.5 ml was taken for Coulter counts. Initial Coulter count/ml: 308,000
# [4] = tested on: MTAP(+) HT29 colon carcinoma cells; assay: Coulter counts of HT29 cultures; format: cell-based, human; settings: 4 days, 5′-dAdo 60 μM added one day before, where present, initial count 46,000, x4 = cells/dish
# Experimental: as §2
# • 5′-dAdo was added to cultures of MTAP(+) HT29 colon carcinoma cells for one day. 5-fluorouracil (FU) was then added and 4 days later cultures were trypsinized, thoroughly dispersed into mostly single cells by vigorous pipetting, and counted. • Initial Coulter count at time of addition of FU: 46,000
# MTAP(−) HL-60 cells = assay: Coulter counts of HL-60 suspension cultures; format: cell-based; settings: six days, 5′-dAdo or Ade 60 μM added 3 hours before, where present, initial cell number/ml 8,160
# Experimental: as §3, §2, §4
# • HL-60 cells were grown in RPMI 1640 with 10% FBS. 5′-dAdo, adenine, or neither were added, and after 3 hours, 5-fluorouracil (FU) was added to selected dishes. Six days later, cell numbers were assessed in a Coulter counter. • Initial cell number/ml: 8,160
# [5] = tested on: human and mouse tumor cells; assay: Killing of tumor cells by adenine analogs (Applicants' findings, no method given); format: cell-based
# [6] = tested on: MTAP(+) hematopoietic cell progenitors; assay: Assay of colony-forming cells from mouse bone marrow; format: cell-based
# Source text: Method: The procedure for assay of colony-forming cells from mouse bone marrow was similar to methods described in the literature (see e.g., B. A. Teicher et al, Cancer Research, 47:513-518, 1987). In brief, cells were flushed from the femurs of Swiss mice, counted, and seeded into six-well tissue culture plates with supplemented McCoy's 5A medium, 15% FBS, 10 to 20% L929-cell conditioned medium as a source of colony-stimulating activity (L929 is MTAP-negative), 0.3% agar, and penicillin/streptomycin (op. cit. B. A. Teicher et al). Cells were seeded at two different densities: 50,000 and 250,000 cells per well. Control wells contained either no drugs, or adenine at 15 or 30 μM, or 5′-deoxyadenosine (5′-dAdo) at 15, 30, or 45 μM. Treatment wells contained 6-methylpurine (MeP) at 5 or 15 μM, 5′-deoxyadenosine (5′-dAdo) at 15 or 30 μM, and adenine at 15 or 30 μM, in various combinations. After eight days of incubation at 37° C. in a humidified 5% CO2 atmosphere, wells were fixed by the addition of 1 ml of 5% glutaraldehyde. Photographs were taken of a randomly selected portion of each well, as viewed (at fixed magnification) through a Nikon inverted microscope equipped with a camera.
# MTAP-negative cell lines = assay: Applicants' tissue culture experiments on MTAP-negative cell lines (summary statements); format: cell-based, human; mouse; settings: co-administered inhibitor of de novo purine synthesis
# [7] = MTX 1 μM or alanosine 3 μM for one day, then DAP 40 μM, 3 days (where present), initial viable cells 146,000
smiles,measurement,setting,value
"CCSCC[C@H](N)C(=O)O [Eth, ethionine]",Viable Cells,"MTAP(−) A549 cells; 4 days, methionine-free medium, Eth 40 μM, MTA 30 μM where present, initial viable cells 160,000","24,000"
same,Viable Cells,"MTAP(−) A549 cells; 4 days, methionine-free medium, Eth 80 μM, MTA 30 μM where present, initial viable cells 160,000","5,000"
same,toxicity to HF cells,"MTAP(+) HF cells [1]; 40 μM L-ethionine, methionine-free medium",very toxic
same,Viable Cells,"MTAP(+) HF cells [1]; 3 days in methionine-free medium, Eth 40 μM, MTA 15 μM where present, initial viable cells 88,000","1,600"
"Nc1ncnc2nc[nH]c12 [Ade, adenine]",blocking of MeP toxicity in A549 cells,MTAP(−) A549 cells; 10 μM MeP,blocked
same,blocking of DAP toxicity in A549 cells,"MTAP(−) A549 cells; 100 μM DAP, Example 7",did
same,blocking of F-Ade toxicity in A549 cells,MTAP(−) A549 cells; 1 to 2 μM F-Ade,blocked
same,blocking of DAP toxicity in HF cells,MTAP(+) HF cells [2]; Example 8,blocked
Nc1nc2nn[nH]c2c(=O)[nH]1 [8-azaguanine],"protection of MTAP-positive cells, but not MTAP-negative cells, from the toxicity of the nucleobase analog",[3],selectively protected
"Nc1nc2nc[nH]c2c(=S)[nH]1 [TG, 6-thioguanine]",Viable Cells,"MTAP(−) A549 cells; 3 days, TG 40 μM, DAP 50 μM where present, initial viable cells 275,000","200,000"
same,"Increase in cell number/ml, No 5′-dAdo",MTAP(+) ML-1 cells,"114,000 /ml"
same,inhibition of growth of MTAP(+) ML-1 cells,MTAP(+) ML-1 cells,inhibited growth
same,"protection of MTAP-positive cells, but not MTAP-negative cells, from the toxicity of the nucleobase analog",[3],selectively protected
same,Increase in cells/dish,"MTAP(+) HF cells [2]; 3 days, TG 40 μM, DAP 50 μM, 5′-dAdo 60 μM where present, initial cell number 296,000","72,000 cells/dish"
same,inhibition of HF cell growth,MTAP(+) HF cells [2]; Example 15,inhibited
"O=c1[nH]cc(F)c(=O)[nH]1 [FU, 5-fluorouracil]",Coulter counts,[4]; FU 3 μM,"65,300"
same,Coulter counts,[4]; FU 10 μM,"36,600"
same,Coulter counts,[4]; FU 30 μM,"25,500"
same,"Increase in cell number/ml, No 5′-dAdo",MTAP(+) ML-1 cells,"436,000 /ml"
same,inhibition of growth of MTAP(+) ML-1 cells,MTAP(+) ML-1 cells,inhibited growth
same,"protection of MTAP-positive cells, but not MTAP-negative cells, from the toxicity of the nucleobase analog",[3],selectively protected
same,Coulter counts/ml,MTAP(−) HL-60 cells; FU 10 μM,"125,200 counts/ml"
same,Coulter counts/ml,MTAP(−) HL-60 cells; FU 30 μM,"62,400 counts/ml"
"Cc1ncnc2nc[nH]c12 [MeP, 6-methylpurine]",killing of human and mouse tumor cells,[5],very rapid and potent killing
same,"toxicity to A549 cells, clonogenic assay",MTAP(−) A549 cells; 10 μM MeP,highly toxic
same,Viable Cells,"MTAP(−) A549 cells; 4 days, MeP 10 μM, MTA, 5′-dAdo or Ade 20 μM where present, cell count at start 40,000, approximate",0
same,Coulter counts,"MTAP(+) HF cells [2]; MeP 5 μM, 5′-dAdo 20 μM or MTA 10 μM where present, 4 days, then fresh medium with 30 μM Ade, 2 days, initial count 1,157","2,885"
same,toxicity to HF cells,"MTAP(+) HF cells [2]; MeP 5-10 μM, Example 3",strongly toxic
same,toxicity to colony-forming murine hematopoietic progenitors,[6]; MeP at doses of 5 and 15 μM,highly toxic
same,colonies observed (each field of view),"[6]; wells seeded at 250,000 cells/well, eight days, MeP 5 or 15 μM, adenine or 5′-dAdo 15 or 30 μM where present, control approximately 40-50 colonies",no colonies
O=CN(O)CC(=O)O [hadacidin],potentiation of selective killing of MTAP-negative cells by adenine and methionine antagonists,MTAP-negative cell lines,potentiated
"CN(Cc1cnc2nc(N)nc(N)c2n1)c1ccc(C(=O)N[C@@H](CCC(=O)O)C(=O)O)cc1 [MTX, methotrexate]",potentiation of selective killing of MTAP-negative cells by adenine and methionine antagonists,MTAP-negative cell lines,potentiated
same,potentiation of killing of A549 cells by DAP,MTAP(−) A549 cells,strongly potentiated
same,Viable Cells,MTAP(−) A549 cells; [7],"89,000"
same,Coulter counts,"MTAP(+) HF cells [2]; 3 days, MTX 10 μM, DAP 100 μM, 5′-dAdo, MTA or Ade 15 μM where present, thymidine 15 μM in all cultures, initial count 1807","3,455"
"N[C@@H](CN(O)N=O)C(=O)O [Alanosine, alanosine]",potentiation of selective killing of MTAP-negative cells by adenine and methionine antagonists,MTAP-negative cell lines,potentiated
same,potentiation of killing of A549 cells by DAP,MTAP(−) A549 cells,strongly potentiated
same,Viable Cells,MTAP(−) A549 cells; [7],"118,000"
